Source: US11890287B2, “Therapeutic compounds and compositions for treating social disorders and substance use disorders” (Kinoxis Therapeutics Pty Ltd, priority 2015, dated 2024)
Values joined by “and” are separate entries in the source; they are usually repeats but may differ in a detail not shown here. Identical values can stand only once.

Columns and labels:
[1] = tested on: Sprague Dawley rats; assay: Acute toxicity, single intravenous bolus dose of 50 mg/kg, one week dose range finding study; type: in vivo
Method: The acute toxicity of SOC-1 test items was assessed in Sprague Dawley rats following intravenous administration of a single bolus dose of 50 mg/kg. A total of n=3 adult female rats were treated and then observed for 7 days prior to termination on Study Day 8 without necropsy.
The design of this acute single dose toxicity study in rats was adapted from OECD Guideline for Testing of Chemicals No. 420 Acute Oral Toxicity—Fixed Dose Procedure’ 2001 (3) and the test facility Standard Operating Procedure SP_T002 ‘Dose Range Finding Study in Rodents’. The study procedures were conducted as outlined below and according to related test facility Standard Operating Procedures.
Briefly, on completion of the acclimation period the study was commenced with administration of the treatment on Study Day 1. […] Body weights were also collected daily. On Study Day 8 the surviving animals were culled without necropsy.
The 5 mg/mL test item treatments were administered as a bolus intravenous injection in a dose volume of 10 mL/kg on Study Day 1 with restraint on conscious animals.
Morbidity and mortality observations were recorded daily during the acclimation period and on Day 8, and twice daily from Day 1 through Day 7.
Clinical observations were conducted at least once during the acclimation period. Clinical observations were conducted at least once daily from Day 1 up to and including the day prior to termination. On the day of treatment the animals were monitored continuously for the first 30 minutes post-treatment with formal observations made at 30 minutes, 1 hour and 4 hours post-treatment.
The clinical observations included examination of animals for changes in skin and fur, eyes and mucous membranes, respiratory and circulatory function, gait and posture, behaviour, tremors or convulsions and any other abnormal findings.
The clinical observations also included daily examination of the tail for any injection site reaction (for example, erythema or oedema).
Body weight was recorded once during the acclimation period and daily from the time of treatment on Day 1 to Day 8.

[2] = tested on: male Sprague Dawley rats; assay: Methamphetamine-primed reinstatement; type: in vivo, rat
[3] = tested on: HEK-293 cells; assay: Cell viability (Cell Titer Blue); type: cell-based; conditions: 48 hours; for Viability: mean ± SD
Method: No apparent cytotoxicity of SOC-1 has been seen in vitro or toxicity in vivo. In a test, SH-SY5Y neuroblastoma cells and HEK-293 cells (4×10^4 cells per well) were exposed to OT or SOC-1 (0.01-10 μM) for 48 hours, with daily media changes. Viability of cells was assessed after a 4 hour exposure to Cell Titer Blue (Promega).

[4] = tested on: male Sprague Dawley rats; assay: Methamphetamine IVSA under a progressive ratio schedule; type: in vivo, rat
Method: Following recovery from surgery, rats were able to self-administer intravenous METH during 2 hour sessions. At the beginning of each session, catheters were flushed with 0.1 ml heparinised saline (10 IU/ml) and were connected to the infusion line. Lever extension and house light illumination indicated the initiation of the session. […] Depression of the active lever delivered a 3 s infusion of METH (0.1 mg/kg/infusion, 50 μL), illuminated the cue light, and extinguished the house light. The house light was extinguished for a 20 second time period during which depression of the active lever had no programmed consequences. […] At the end of each session, the infusion line was disconnected and catheters were flushed with 0.2 ml of cephazolin sodium in heparinized saline solution.
Rats acquired self-administration of METH during daily 2 hour fixed ratio 1 scheduled sessions. To avoid overdose, each rat was limited to a maximum of 60 infusions per session. Rats continued under the FR-1 schedule until stable responding was met as indicated by less than 10% variability in number of infusions and active lever presses compared to the day prior. Stable self-administration baselines were achieved within 10 days, after which rats advanced to the progressive ratio schedule.
Under the progressive ratio (PR) schedule, METH infusions were delivered according to the ratio: ((5×(e^reinforcer #×0.2)−5). The number of active lever presses that were required to receive one METH infusion increased according to the following sequence: 1, 2, 4, 6, 9, 12, 15, 20, 25, 32, 40, 50, 62, 77, 95, 118, 145, 178, 219, 268 (Cornish et al., 2005). The daily PR sessions were completed after 2 hours or if an infusion had not been self-administered for 60 minutes. Rats continued with PR sessions until lever pressing stabilised, which was determined by less than 10% variability in number of infusions and active lever presses for two consecutive days. Lever pressing stabilised after 7 days. During this time, the rats were given a sham saline i.p. (1 ml/kg) injection prior to the session. […]

## Cl.Cn1ncc2c1Nc1ccccc1NC2 [SOC-1]
[1]; 50 mg/kg IV
  body weight findings: no body weight findings that were considered treatment related
  clinical findings post-dose on Study Day 1: mild piloerection and reduced activity levels
  injection site reactions: no findings of injection site reactions
  morbidity and mortality: no unscheduled deaths or findings of morbidity
  time to resolution of clinical findings post-dose: ≤ 4 h
  tolerability: tolerated
[1]; 50 mg/kg IV in Hartman's solution
  vocalisation and flinch reactions at the time of dosing: not associated with similar reactions
[1]; 50 mg/kg IV, Study Day 1
  Body Weight, mean ± SD: 224.30 ± 7.45 g
  Body weight, individual rats: 228.4 grams and 215.7 grams and 228.8 grams
[1]; 50 mg/kg IV, Study Day 2
  Body Weight, mean ± SD: 223.07 ± 4.37 g
  Body weight, individual rats: 220.9 grams and 220.2 grams and 228.1 grams
[1]; 50 mg/kg IV, Study Day 3
  Body Weight, mean ± SD: 226.87 ± 4.33 g
  Body weight, individual rats: 225.1 grams and 223.7 grams and 231.8 grams
[1]; 50 mg/kg IV, Study Day 4
  Body Weight, mean ± SD: 223.03 ± 5.34 g
  Body weight, individual rats: 229.2 grams and 220.1 grams and 219.8 grams
[1]; 50 mg/kg IV, Study Day 5
  Body Weight, mean ± SD: 222.77 ± 4.75 g
  Body weight, individual rats: 219.0 grams and 221.2 grams and 228.1 grams
[1]; 50 mg/kg IV, Study Day 6
  Body Weight, mean ± SD: 223.80 ± 3.70 g
  Body weight, individual rats: 220.7 grams and 222.8 grams and 227.9 grams
[1]; 50 mg/kg IV, Study Day 7
  Body Weight, mean ± SD: 226.60 ± 2.57 g
  Body weight, individual rats: 225.7 grams and 224.6 grams and 229.5 grams
[1]; 50 mg/kg IV, Study Day 8
  Body Weight, mean ± SD: 228.03 ± 3.81 g
  Body weight, individual rats: 229.1 grams and 223.8 grams and 231.2 grams
[1]; 50 mg/kg IV, n 3
  Hunched posture or gait- mild (incidence): 1
  No abnormalities detected: (incidence): 0
  Piloerection- mild (incidence): 1
  Reduced activity (incidence): 3
[2]; 10 mg/kg, vs extinction day prior, p=0.147
  lever-pressing activity, SOC-1 on its own (SOC-1+vehicle): did not significantly alter lever-pressing activity
[2]; 2.5 (p=0.006), 5 and 10 mg/kg (p<0.005) prior to methamphetamine prime
  locomotor activity across reinstatement sessions: significantly lower
[2]; 2.5, 5 and 10 mg/kg IP, each p<0.005 vs vehicle
  active lever pressing produced by a methamphetamine prime: significantly reduced active lever pressing
[2]; vs previous extinction session, p=0.472
  locomotor activity, sole administration of SOC-1: did not significantly change locomotor activity
[3]; 0.01 μM
  Viability: 102.6 ± 2.1 percentage of vehicle viability
[3]; 0.1 μM
  Viability: 102.1 ± 3.2 percentage of vehicle viability
[3]; 1 μM
  Viability: 102.5 ± 3.6 percentage of vehicle viability
[3]; 10 μM
  Viability: 103.2 ± 1.2 percentage of vehicle viability
[3]; 0.01-10 μM
  differences in viability: No significant differences in viability
[4]; 5 mg (p=0.043) and 10 mg/kg (p=0.007) IP vs vehicle
  active lever pressing under a PR schedule: significantly reduced active lever pressing
[4]; 10 mg/kg IP, p=0.001 vs vehicle
  infusion breakpoint: significant reduction
[4]; 10 mg/kg IP, p=0.005 vs vehicle
  locomotor activity: significant reduction
